Numbered stars: 1 amine (or outer) side, 2 acyl side, 3 side chain; on linkers, the order of the positions; unused ones are H or OH. Bridge positions count the residues as written; N and C are the ends. Square brackets hold non-standard residues; d marks the D form. Side chains are listed from the residue outwards. Peptide text beside a SMILES is read from it. * marks the point of attachment. Trp(1-CH2CO2Me) = COC(=O)Cn1cc(C[C@H](N)C(=O)O)c2ccccc21; Trp(1-CH2COOH) = N[C@@H](Cc1cn(CC(=O)O)c2ccccc12)C(=O)O; Trp(1-Me) = Cn1cc(C[C@H](N)C(=O)O)c2ccccc21; Phe(4-F) = N[C@@H](Cc1ccc(F)cc1)C(=O)O; Dab(CONH2) = NC(=O)NCC[C@H](N)C(=O)O; Hyp = O=C(O)[C@@H]1C[C@@H](O)CN1; NHcycloheptyl = C1CCCC(N*)CC1; NMeNle = CCCC[C@H](NC)C(=O)O; NMeC = CN[C@@H](CS)C(=O)O; Pip = O=C(O)[C@@H]1CCCCN1; NMeA = CN[C@@H](C)C(=O)O; X7 = COc1ccc(CN*)c(OC)c1; Dab = NCC[C@H](N)C(=O)O; X13 = CCCCCCCCCCOC(=O)*; Dap = NC[C@H](N)C(=O)O; NH(heptyl) = CCCCCCCN*; Boc = CC(C)(C)OC(=O)*; X10 = CC(C)(C)SC(=O)*; CO = O=C([*:1])[*:2]; Piv = CC(C)(C)C(=O)*; X1 = CC(=O)NC(=O)*; Moc = COC(=O)*
molecular target: T1, PD-1/PD-L1 (Homo sapiens, UniProt Q9NZQ7); test: PD-1/PD-L1 Homogenous Time-Resolved Fluorescence (HTRF) binding assay; details: PD-L1-His 10 nM final, PD-1-Ig 20 nM final; inhibitors pre-incubated with PD-L1-His for 15 m
T1 construct: TVMV protease site linker (C); made in house; host or cells: HEK293T cells
Method in brief: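 Compounds pre-incubated 15 min with human PD-L1(18-239)-His (10 nM final), then PD-1(25-167)-Ig (20 nM final) added for 15 min, in dPBS with 0.1% BSA and 0.05% Tween-20. Eu-cryptate anti-Ig (1 nM) and APC anti-His (20 nM) added, 30 min equilibration, 665/620 nm ratio read; IC50 reported.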

| SMILES | IC50 [nM] |
| --- | --- |
| CCCC[C@H]1C(=O)N(C)[C@@H](CCCC)C(=O)N[C@@H](CCC(=O)O)C(=O)N[C@H](C(N)=O)CSCC(=O)N[C@@H](Cc2ccc(F)cc2)C(=O)N2CCCC[C@H]2C(=O)N[C@@H](CC(N)=O)C(=O)N2CCC[C@H]2C(=O)N[C@@H](CNC(=O)C(C)(C)C)C(=O)N[C@@H](CC(C)C)C(=O)N2C[C@H](O)C[C@H]2C(=O)N[C@@H](Cc2c[nH]c3ccccc23)C(=O)N[C@@H](CCN)C(=O)N[C@@H](Cc2cn(CC(=O)O)c3ccccc23)C(=O)N1C [Example 20130] ({CH2CO}-[Phe(4-F)][Pip]NP[Dap](Piv)L[Hyp]W[Dab][Trp(1-CH2COOH)][NMeNle][NMeNle]EC-NH2; thioether N-14) | 11.8 |
| CCCC[C@H]1C(=O)N(C)[C@@H](CCCC)C(=O)N[C@@H](C(C)C)C(=O)N[C@H](C(N)=O)CSCC(=O)N[C@@H](Cc2ccc(F)cc2)C(=O)N2CCCC[C@H]2C(=O)N[C@@H](CC(=O)O)C(=O)N2CCC[C@H]2C(=O)N[C@@H](CNC(=O)C(C)(C)C)C(=O)N[C@@H](CCCCN)C(=O)N2C[C@H](O)C[C@H]2C(=O)N[C@@H](Cc2c[nH]c3ccccc23)C(=O)N[C@@H](CCNC(=O)C(C)(C)C)C(=O)N[C@@H](Cc2cn(CC(=O)O)c3ccccc23)C(=O)N1C [Example 20080] ({CH2CO}-[Phe(4-F)][Pip]DP[Dap](Piv)K[Hyp]W[Dab](Piv)[Trp(1-CH2COOH)][NMeNle][NMeNle]VC-NH2; thioether N-14) | 10.7 |
| CCCC[C@H]1C(=O)N(C)[C@@H](CCCC)C(=O)N[C@@H](CC(C)C)C(=O)N[C@H](C(N)=O)CSCC(=O)N[C@@H](Cc2ccc(F)cc2)C(=O)N2CCCC[C@H]2C(=O)N[C@@H](CC(N)=O)C(=O)N2CCC[C@H]2C(=O)N[C@@H](CNC(=O)C(C)(C)C)C(=O)N[C@@H](CC(C)C)C(=O)N2C[C@H](O)C[C@H]2C(=O)N[C@@H](Cc2c[nH]c3ccccc23)C(=O)N[C@@H](CCN)C(=O)N[C@@H](Cc2cn(C)c3ccccc23)C(=O)N1C [Example 20260] ({CH2CO}-[Phe(4-F)][Pip]NP[Dap](Piv)L[Hyp]W[Dab][Trp(1-Me)][NMeNle][NMeNle]LC-NH2; thioether N-14) | 28.9 |
| CCCCCCCNC(=O)NCC[C@@H]1NC(=O)[C@H](Cc2c[nH]c3ccccc23)NC(=O)[C@@H]2C[C@@H](O)CN2C(=O)[C@H](CC(C)C)NC(=O)[C@H](CNC(=O)NCCCCCCC)NC(=O)[C@@H]2CCCN2C(=O)[C@H](CC(N)=O)NC(=O)[C@H](C)N(C)C(=O)[C@H](Cc2ccc(O)cc2)NC(=O)CSC[C@@H](C(=O)NCC(N)=O)NC(=O)[C@H](CC(C)C)NC(=O)[C@H](CCCC)N(C)C(=O)[C@H](CCCC)N(C)C(=O)[C@H](Cc2cn(CC(=O)O)c3ccccc23)NC1=O [Example 1033] ({CH2CO}-Y[NMeA]NP[Dap]([CO-NH(heptyl)])L[Hyp]W[Dab]([CO-NH(heptyl)])[Trp(1-CH2COOH)][NMeNle][NMeNle]LCG-NH2; thioether N-14) | 7.6 |
| CCCCCCCCCCOC(=O)NCC[C@@H]1NC(=O)[C@H](Cc2c[nH]c3ccccc23)NC(=O)[C@@H]2C[C@@H](O)CN2C(=O)[C@H](CC(C)C)NC(=O)[C@H](CNC(=O)OCCCCCCCCCC)NC(=O)[C@@H]2CCCN2C(=O)[C@H](CC(N)=O)NC(=O)[C@H](C)N(C)C(=O)[C@H](Cc2ccc(O)cc2)NC(=O)CSC[C@@H](C(=O)NCC(N)=O)NC(=O)[C@H](CC(C)C)NC(=O)[C@H](CCCC)N(C)C(=O)[C@H](CCCC)N(C)C(=O)[C@H](Cc2cn(CC(=O)OC)c3ccccc23)NC1=O [Example 1015] ({CH2CO}-Y[NMeA]NP[Dap](X13)L[Hyp]W[Dab](X13)[Trp(1-CH2CO2Me)][NMeNle][NMeNle]LCG-NH2; thioether N-14) | > 10000 |
| CCCC[C@H]1C(=O)N(C)[C@@H](CCCC)C(=O)N[C@@H](CC(C)C)C(=O)N(C)[C@H](C(N)=O)CSCC(=O)N[C@@H](Cc2ccc(F)cc2)C(=O)N2CCCC[C@H]2C(=O)N[C@@H](CC(=O)O)C(=O)N2CCC[C@H]2C(=O)N[C@@H](CN)C(=O)N[C@@H](CC(C)C)C(=O)N2C[C@H](O)C[C@H]2C(=O)N[C@@H](Cc2c[nH]c3ccccc23)C(=O)N[C@@H](CCN)C(=O)N[C@@H](Cc2cn(CC(=O)O)c3ccccc23)C(=O)N1C [Example 10003] ({CH2CO}-[Phe(4-F)][Pip]DP[Dap]L[Hyp]W[Dab][Trp(1-CH2COOH)][NMeNle][NMeNle]L[NMeC]-NH2; thioether N-14) | 12 |
| CCCC[C@H]1C(=O)N(C)[C@@H](CCCC)C(=O)N[C@@H](CC(C)C)C(=O)N[C@H](C(N)=O)CSCC(=O)N[C@@H](Cc2ccc(F)cc2)C(=O)N2CCCC[C@H]2C(=O)N[C@@H](CC(N)=O)C(=O)N2CCC[C@H]2C(=O)N[C@@H](CNC(=O)C(C)(C)C)C(=O)N[C@@H](CC(C)C)C(=O)N2C[C@H](O)C[C@H]2C(=O)N[C@@H](Cc2c[nH]c3ccccc23)C(=O)N[C@@H](CCN)C(=O)N[C@@H](Cc2cn(CC(=O)O)c3ccccc23)C(=O)N1C [Example 20300] ({CH2CO}-[Phe(4-F)][Pip]NP[Dap](Piv)L[Hyp]W[Dab][Trp(1-CH2COOH)][NMeNle][NMeNle]LC-NH2; thioether N-14) | 38.2 |

Molecules with a lower IC50, results first:

| IC50 [nM] | SMILES |
| --- | --- |
| 4.6 | CCCC[C@H]1C(=O)N(C)[C@@H](CCCC)C(=O)N[C@@H](CC(C)C)C(=O)N[C@H](C(=O)NCC(N)=O)CSCC(=O)N[C@@H](Cc2ccc(O)cc2)C(=O)N(C)[C@@H](C)C(=O)N[C@@H](CC(N)=O)C(=O)N2CCC[C@H]2C(=O)N[C@@H](CNC(=O)NC2CCCCCC2)C(=O)N[C@@H](CC(C)C)C(=O)N2C[C@H](O)C[C@H]2C(=O)N[C@@H](Cc2c[nH]c3ccccc23)C(=O)N[C@@H](CCNC(=O)NC2CCCCCC2)C(=O)N[C@@H](Cc2cn(CC(=O)O)c3ccccc23)C(=O)N1C [Example 1045] ({CH2CO}-Y[NMeA]NP[Dap]([CO-NHcycloheptyl])L[Hyp]W[Dab]([CO-NHcycloheptyl])[Trp(1-CH2COOH)][NMeNle][NMeNle]LCG-NH2; thioether N-14) |
| 4 | CCCC[C@H]1C(=O)N(C)[C@@H](CCCC)C(=O)N[C@@H](CC(C)C)C(=O)N[C@H](C(=O)NCC(N)=O)CSCC(=O)N[C@@H](Cc2ccc(O)cc2)C(=O)N(C)[C@@H](C)C(=O)N[C@@H](CC(N)=O)C(=O)N2CCC[C@H]2C(=O)N[C@@H](CNC(=O)NC(C)=O)C(=O)N[C@@H](CC(C)C)C(=O)N2C[C@H](O)C[C@H]2C(=O)N[C@@H](Cc2c[nH]c3ccccc23)C(=O)N[C@@H](CCNC(N)=O)C(=O)N[C@@H](Cc2cn(CC(=O)O)c3ccccc23)C(=O)N1C [Example 1030] ({CH2CO}-Y[NMeA]NP[Dap](X1)L[Hyp]W[Dab(CONH2)][Trp(1-CH2COOH)][NMeNle][NMeNle]LCG-NH2; thioether N-14) |
| 6 | CCCC[C@H]1C(=O)N(C)[C@@H](CCCC)C(=O)N[C@@H](CC(C)C)C(=O)N[C@H](C(=O)NCC(N)=O)CSCC(=O)N[C@@H](Cc2ccc(O)cc2)C(=O)N(C)[C@@H](C)C(=O)N[C@@H](CC(N)=O)C(=O)N2CCC[C@H]2C(=O)N[C@@H](CNC(=O)SC(C)(C)C)C(=O)N[C@@H](CC(C)C)C(=O)N2C[C@H](O)C[C@H]2C(=O)N[C@@H](Cc2c[nH]c3ccccc23)C(=O)N[C@@H](CCNC(=O)SC(C)(C)C)C(=O)N[C@@H](Cc2cn(CC(=O)OC)c3ccccc23)C(=O)N1C [Example 1025] ({CH2CO}-Y[NMeA]NP[Dap](X10)L[Hyp]W[Dab](X10)[Trp(1-CH2CO2Me)][NMeNle][NMeNle]LCG-NH2; thioether N-14) |
| 5.9 | CCCC[C@H]1C(=O)N(C)[C@@H](CCCC)C(=O)N[C@@H](CC(C)C)C(=O)N[C@H](C(=O)NCC(N)=O)CSCC(=O)N[C@@H](Cc2ccc(O)cc2)C(=O)N(C)[C@@H](C)C(=O)N[C@@H](CC(N)=O)C(=O)N2CCC[C@H]2C(=O)N[C@@H](CNC(=O)OC)C(=O)N[C@@H](CC(C)C)C(=O)N2C[C@H](O)C[C@H]2C(=O)N[C@@H](Cc2c[nH]c3ccccc23)C(=O)N[C@@H](CCNC(=O)OC)C(=O)N[C@@H](Cc2cn(CC(=O)OC)c3ccccc23)C(=O)N1C [Example 1017] ({CH2CO}-Y[NMeA]NP[Dap](Moc)L[Hyp]W[Dab](Moc)[Trp(1-CH2CO2Me)][NMeNle][NMeNle]LCG-NH2; thioether N-14) |
| 2.6 | CCCC[C@H]1C(=O)N(C)[C@@H](CCCC)C(=O)N[C@@H](CC(C)C)C(=O)N[C@H](C(=O)NCC(N)=O)CSCC(=O)N[C@@H](Cc2ccc(O)cc2)C(=O)N(C)[C@@H](C)C(=O)N[C@@H](CC(N)=O)C(=O)N2CCC[C@H]2C(=O)N[C@@H](CNC(=O)NCc2ccc(OC)cc2OC)C(=O)N[C@@H](CC(C)C)C(=O)N2C[C@H](O)C[C@H]2C(=O)N[C@@H](Cc2c[nH]c3ccccc23)C(=O)N[C@@H](CCNC(=O)NCc2ccc(OC)cc2OC)C(=O)N[C@@H](Cc2cn(CC(=O)O)c3ccccc23)C(=O)N1C [Example 1044] ({CH2CO}-Y[NMeA]NP[Dap]([CO-X7])L[Hyp]W[Dab]([CO-X7])[Trp(1-CH2COOH)][NMeNle][NMeNle]LCG-NH2; thioether N-14) |
| 6.1 | CCCC[C@H]1C(=O)N(C)[C@@H](CCCC)C(=O)N[C@@H](CC(C)C)C(=O)N[C@H](C(=O)NCC(N)=O)CSCC(=O)N[C@@H](Cc2ccc(O)cc2)C(=O)N(C)[C@@H](C)C(=O)N[C@@H](CC(N)=O)C(=O)N2CCC[C@H]2C(=O)N[C@@H](CNC(=O)OC(C)(C)C)C(=O)N[C@@H](CC(C)C)C(=O)N2C[C@H](O)C[C@H]2C(=O)N[C@@H](Cc2c[nH]c3ccccc23)C(=O)N[C@@H](CCNC(=O)OC(C)(C)C)C(=O)N[C@@H](Cc2cn(CC(=O)O)c3ccccc23)C(=O)N1C [Example 1014] ({CH2CO}-Y[NMeA]NP[Dap](Boc)L[Hyp]W[Dab](Boc)[Trp(1-CH2COOH)][NMeNle][NMeNle]LCG-NH2; thioether N-14) |

From patent publication US20220251141A1, “IMMUNOMODULATORS” (Bristol-Myers Squibb Company, priority 2019, published 2022)
